# Laboratory results reported in patent US9695155B2, “Herbicidal substituted pyrimidinyloxy benzene compounds” (E. I. DU PONT DE NEMOURS AND COMPANY, priority 2013, dated 2017).
# Key:
# pigweed [1] = assay: Test A preemergence; format: in vivo, Amaranthus retroflexus
# How it was run: (§1)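 Visual injury scored 0–100 (100 = complete control) against untreated controls about 10 days after treatment in a greenhouse. Test chemicals, formulated with surfactant in non-phytotoxic solvent, were sprayed on soil preemergence or on 2-10 cm, one- to two-leaf plants postemergence.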
# wheat = assay: Test A preemergence; format: in vivo, Triticum aestivum; conditions: 125 g ai/ha, 0 to 100 scale where 0 is no effect and 100 is complete control
# How it was run: as §1
# large (Lg) crabgrass = assay: Test A postemergence; format: in vivo, Digitaria sanguinalis; conditions: 0 to 100 scale where 0 is no effect and 100 is complete control
# How it was run: as §1
# giant foxtail = assay: Test A postemergence; format: in vivo, Setaria faberii
# How it was run: as §1
# velvetleaf = assay: Test A postemergence; format: in vivo, Abutilon theophrasti; conditions: 500 g ai/ha, 0 to 100 scale where 0 is no effect and 100 is complete control
# How it was run: as §1
# corn = assay: Test A postemergence; format: in vivo, Zea mays
# How it was run: as §1
# lambsquarters = assay: Test C preemergence; format: in vivo, Chenopodium album
# How it was run: (§2)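 Greenhouse herbicide screen. Pre: seeded loam/sand, sprayed at planting. Post: 1–4 leaf plants (2–18 cm) in peat-based mix. Formulation: solvent mixture + surfactant, non-phytotoxic. Readout: visual % control vs untreated, 13–15 d; dash = not tested.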
# yellow nutsedge = assay: Test C preemergence; format: in vivo, Cyperus esculentus
# How it was run: as §2
# pigweed [2] = assay: Test C preemergence; format: in vivo, Amaranthus retroflexus
# How it was run: as §2
# ragweed = assay: Test C preemergence; format: in vivo, Ambrosia elatior
# How it was run: as §2
# waterhemp = assay: Test C preemergence; format: in vivo, Amaranthus rudis
# Text: Seeds of plant species selected from blackgrass (Alopecurus myosuroides), Italian ryegrass (Lolium multiflorum), wheat, winter (winter wheat, Triticum aestivum), galium (catchweed bedstraw, Galium aparine), corn (Zea mays), large (Lg) crabgrass (Digitaria sanguinalis), giant foxtail (Setaria faberii), johnsongrass (Sorghum halepense), lambsquarters (Chenopodium album), morningglory (Ipomoea coccinea), yellow nutsedge (Cyperus esculentus), pigweed (Amaranthus retroflexus), ragweed (common ragweed, Ambrosia elatior), soybean (Glycine max), barnyardgrass (Echinochloa crus-galli), oilseed rape (Brassica napus), waterhemp (common waterhemp, Amaranthus rudis), kochia (Kochia scoparia), wild oat (Avena fatua), surinam grass (Brachiaria decumbens), foxtail, green (green foxtail, Setaria viridis), goosegrass (Eleusine indica), bromegrass, downy (downy bromegrass, Bromus tectorum), nightshade (eastern black nightshade, Solanum ptycanthum), cocklebur (common cocklebur, Xanthium strumarium), cupgrass, woolly (woolly cupgrass, Eriochloa villosa), bermudagrass (Cynodon dactylon), sunflower, (common oilseed sunflower, Helianthus annuus), Russian thistle (Salsola kali), and velvetleaf (Abutilon theophrasti) were planted into a blend of loam soil and sand and treated preemergence with test chemicals formulated in a non-phytotoxic solvent mixture which included a surfactant.
# At the same time, plants selected from these crop and weed species and also barley, winter (winter barley, Hordeum vulgare), windgrass (Apera spica-venti), chickweed (common chickweed, Stellaria media), deadnettle (henbit deadnettle, Lamium amplexicaule), and canarygrass (littleseed canarygrass, Phalaris minor) were planted in pots containing Redi-Earth® planting medium (Scotts Company, 14111 Scottslawn Road, Marysville, Ohio 43041) comprising spaghnum peat moss, vermiculite, wetting agent and starter nutrients and treated with postemergence applications of test chemicals formulated in the same manner. Plants ranged in height from 2 to 18 cm (1- to 4-leaf stage) for postemergence treatments. Treated plants and controls were maintained in a greenhouse for 13 to 15 days, after which time all species were compared to controls and visually evaluated. Plant response ratings, summarized in Table C, are based on a scale of 0 to 100 where 0 is no effect and 100 is complete control. A dash (-) response means no test result.
# [3] = 125 g ai/ha, 0 to 100 scale where 0 is no effect and 100 is complete control
# [4] = 500 g ai/ha, 0 to 100 scale where 0 is no effect and 100 is complete control
# [5] = 16 g ai/ha, preemergence, scale 0 to 100 (0 no effect, 100 complete control)
# [6] = 62 g ai/ha, preemergence, scale 0 (no effect) to 100 (complete control)
# [7] = 125 g ai/ha, preemergence, scale 0 (no effect) to 100 (complete control)
# [8] = Preemergence, 31 g ai/ha, scale 0 to 100, 0 no effect, 100 complete control
# [9] = 31 g ai/ha, 0 to 100 scale, 0 no effect, 100 complete control
# [10] = 125 g ai/ha, 0 to 100 scale, 0 no effect, 100 complete control
# [11] = Preemergence, 62 g ai/ha, scale 0 to 100, 0 no effect, 100 complete control
smiles,measurement,setting,value
Fc1cnc(Oc2cccc(C(F)F)c2-n2cc(Br)cn2)nc1 [Compound 112],"Plant response rating, Pigweed",pigweed [1]; [3],100
same,Pigweed plant response rating,"pigweed [1]; 500 g ai/ha, 0 to 100 scale, 0 no effect, 100 complete control, approx. 10 days",100
same,"Plant response rating, Wheat",wheat,0
same,"Plant response rating, Crabgrass, Large",large (Lg) crabgrass; 125 g ai/ha,60
same,"Plant response rating, Crabgrass, Large",large (Lg) crabgrass; 500 g ai/ha,100
same,"Plant response rating, Foxtail, Giant",giant foxtail; [3],30
same,"Plant response rating, Foxtail, Giant",giant foxtail; [4],90
same,"Plant response rating, Velvetleaf",velvetleaf,100
same,"Plant response rating, Corn",corn; [3],30
same,"Plant response rating, Corn",corn; [4],70
same,Lambsquarters plant response rating,lambsquarters; [5],98
same,Lambsquarters plant response rating,lambsquarters; [6],100
same,Lambsquarters plant response rating,lambsquarters; [7],98
same,"Plant response rating, Lambsquarters",lambsquarters; [8],100
same,"Nutsedge, Yellow plant response rating",yellow nutsedge; [5],0
same,"Nutsedge, Yellow plant response rating",yellow nutsedge; [6],15
same,"Nutsedge, Yellow plant response rating",yellow nutsedge; [7],40
same,"Plant response rating, Nutsedge, Yellow",yellow nutsedge; [8],5
same,Pigweed plant response rating,pigweed [2]; [5],100
same,Pigweed plant response rating,pigweed [2]; [6],100
same,Pigweed plant response rating,pigweed [2]; [7],100
same,"Plant response rating, Pigweed",pigweed [2]; [8],100
same,Ragweed plant response rating,ragweed; [5],0
same,Ragweed plant response rating,ragweed; [6],35
same,Ragweed plant response rating,ragweed; [7],100
same,"Plant response rating, Ragweed",ragweed; [8],0
same,Waterhemp plant response rating,waterhemp; [5],90
same,Waterhemp plant response rating,waterhemp; [6],100
same,Waterhemp plant response rating,waterhemp; [7],100
same,"Plant response rating, Waterhemp",waterhemp; [8],98
"N#Cc1cccc(Oc2ncc(Cl)cn2)c1-n1cnc(C(F)(F)F)c1 [Compound 252, 3-[(5-chloro-2-pyrimidinyl)oxy]-2-[4-(trifluoromethyl)-1H-imidazol-1-yl]benzonitrile]",Pigweed plant response rating (0 to 100 scale),pigweed [1]; 125 g ai/ha,100
same,pest or weed control at 31 g/ha,"pigweed [1]; Amaranthus retroflexus, pre-emergence, 240 h, 31 g ai/ha, 0 to 100 scale where 0 is no effect and 100 is complete control, visual, approximately 10 days, read-out: Plant response rating, Pigweed",100%
same,pest or weed control at 500 g/ha,"pigweed [1]; Amaranthus retroflexus, pre-emergence, 240 h, 500 g ai/ha, 0 to 100 scale where 0 is no effect and 100 is complete control, read-out: Pigweed plant response rating",100%
same,pest or weed control at 31 g/ha,"giant foxtail; Setaria faberi, post-emergence, 240 h, 31 g ai/ha, 0 to 100 scale, 0 no effect, 100 complete control, read-out: Plant response rating, Foxtail, Giant",20%
same,pest or weed control at 125 g/ha,"giant foxtail; Setaria faberi, post-emergence, 240 h, 125 g ai/ha, 0 to 100 scale, 0 no effect, 100 complete control, read-out: Plant response rating, Foxtail, Giant",100%
same,pest or weed control at 500 g/ha,"giant foxtail; Setaria faberi, post-emergence, 240 h, 500 g ai/ha, 0 to 100 scale where 0 is no effect and 100 is complete control, read-out: Plant response rating, Foxtail, Giant",100%
same,"Corn plant response rating (crop injury, 0 = no effect, 100 = complete kill) at 31 g/ha","corn; Zea mays, post-emergence, 240 h, 31 g ai/ha, 0 to 100 scale, 0 no effect, 100 complete control",20%
same,"Corn plant response rating (crop injury, 0 = no effect, 100 = complete kill) at 125 g/ha","corn; Zea mays, post-emergence, 240 h, 125 g ai/ha, 0 to 100 scale, 0 no effect, 100 complete control",60%
same,"Corn plant response rating (crop injury, 0 = no effect, 100 = complete kill) at 500 g/ha","corn; Zea mays, post-emergence, 240 h, 500 g ai/ha, 0 to 100 scale where 0 is no effect and 100 is complete control",90%
same,pest or weed control at 16 g/ha,"lambsquarters; Chenopodium album, pre-emergence, 16 g ai/ha, preemergence, scale 0 to 100 (0 no effect, 100 complete control), read-out: Lambsquarters plant response rating",98%
same,pest or weed control at 125 g/ha,"lambsquarters; Chenopodium album, pre-emergence, 125 g ai/ha, preemergence, scale 0 (no effect) to 100 (complete control), read-out: Lambsquarters plant response rating",100%
same,pest or weed control at 62 g/ha,"lambsquarters; Chenopodium album, pre-emergence, Preemergence, 62 g ai/ha, scale 0 to 100, 0 no effect, 100 complete control, read-out: Plant response rating, Lambsquarters",100%
same,pest or weed control at 16 g/ha,"yellow nutsedge; Cyperus, pre-emergence, 16 g ai/ha, preemergence, scale 0 to 100 (0 no effect, 100 complete control), read-out: Nutsedge, Yellow plant response rating",0%
same,pest or weed control at 125 g/ha,"yellow nutsedge; Cyperus, pre-emergence, 125 g ai/ha, preemergence, scale 0 (no effect) to 100 (complete control), read-out: Nutsedge, Yellow plant response rating",60%
same,pest or weed control at 62 g/ha,"yellow nutsedge; Cyperus, pre-emergence, Preemergence, 62 g ai/ha, scale 0 to 100, 0 no effect, 100 complete control, read-out: Plant response rating, Nutsedge, Yellow",40%
same,pest or weed control at 16 g/ha,"pigweed [2]; Amaranthus retroflexus, pre-emergence, 16 g ai/ha, preemergence, scale 0 to 100 (0 no effect, 100 complete control), read-out: Pigweed plant response rating",98%
same,pest or weed control at 125 g/ha,"pigweed [2]; Amaranthus retroflexus, pre-emergence, 125 g ai/ha, preemergence, scale 0 (no effect) to 100 (complete control), read-out: Pigweed plant response rating",100%
same,pest or weed control at 62 g/ha,"pigweed [2]; Amaranthus retroflexus, pre-emergence, Preemergence, 62 g ai/ha, scale 0 to 100, 0 no effect, 100 complete control, read-out: Plant response rating, Pigweed",100%
same,pest or weed control at 16 g/ha,"ragweed; Ambrosia artemisiifolia, pre-emergence, 16 g ai/ha, preemergence, scale 0 to 100 (0 no effect, 100 complete control), read-out: Ragweed plant response rating",40%
same,pest or weed control at 125 g/ha,"ragweed; Ambrosia artemisiifolia, pre-emergence, 125 g ai/ha, preemergence, scale 0 (no effect) to 100 (complete control), read-out: Ragweed plant response rating",100%
same,pest or weed control at 62 g/ha,"ragweed; Ambrosia artemisiifolia, pre-emergence, Preemergence, 62 g ai/ha, scale 0 to 100, 0 no effect, 100 complete control, read-out: Plant response rating, Ragweed",98%
same,pest or weed control at 16 g/ha,"waterhemp; Amaranthus tuberculatus, pre-emergence, 16 g ai/ha, preemergence, scale 0 to 100 (0 no effect, 100 complete control), read-out: Waterhemp plant response rating",100%
same,pest or weed control at 125 g/ha,"waterhemp; Amaranthus tuberculatus, pre-emergence, 125 g ai/ha, preemergence, scale 0 (no effect) to 100 (complete control), read-out: Waterhemp plant response rating",100%
same,pest or weed control at 62 g/ha,"waterhemp; Amaranthus tuberculatus, pre-emergence, Preemergence, 62 g ai/ha, scale 0 to 100, 0 no effect, 100 complete control, read-out: Plant response rating, Waterhemp",100%
Fc1cccc(Oc2ncc(Cl)cn2)c1-n1cc(OCC(F)(F)F)cn1 [Compound 270],"Plant response rating, Pigweed","pigweed [1]; 31 g ai/ha, 0 to 100 scale where 0 is no effect and 100 is complete control, visual, approximately 10 days",100
same,Pigweed plant response rating (0 to 100 scale),pigweed [1]; 125 g ai/ha,100
same,"Plant response rating, Foxtail, Giant",giant foxtail; [9],10
same,"Plant response rating, Foxtail, Giant",giant foxtail; [10],90
same,"Plant response rating, Corn",corn; [9],20
same,"Plant response rating, Corn",corn; [10],50
same,Lambsquarters plant response rating,lambsquarters; [5],80
same,Lambsquarters plant response rating,lambsquarters; [7],100
same,"Plant response rating, Lambsquarters",lambsquarters; [11],100
same,"Nutsedge, Yellow plant response rating",yellow nutsedge; [5],0
same,"Nutsedge, Yellow plant response rating",yellow nutsedge; [7],45
same,"Plant response rating, Nutsedge, Yellow",yellow nutsedge; [11],15
same,Pigweed plant response rating,pigweed [2]; [5],100
same,Pigweed plant response rating,pigweed [2]; [7],100
same,"Plant response rating, Pigweed",pigweed [2]; [11],100
same,Ragweed plant response rating,ragweed; [5],0
same,Ragweed plant response rating,ragweed; [7],70
same,"Plant response rating, Ragweed",ragweed; [11],45
same,Waterhemp plant response rating,waterhemp; [5],80
same,Waterhemp plant response rating,waterhemp; [7],100
same,"Plant response rating, Waterhemp",waterhemp; [11],100
